# According to patent publication US20190365776A1, “THERAPEUTIC AGENT FOR OCULAR FUNDUS DISEASE” (KYUSHU UNIVERSITY, NATIONAL UNIVERSITY CORPORATION, priority 2013, published 2019):
# Columns and labels:
# [1] = test system: mice CNV (Choroidal Neovascularization) model; assay: Mice CNV (choroidal neovascularization) model, laser photocoagulation; format: in vivo, C57BL/6JJcl mice; details: ocular instillation three times a day, day 0 to day 7, control 109177±26399
# Experimental: The effectiveness of the compound 1 in a mice CNV model known as a model of age-related macular degeneration or the like was examined in the following manner.
# Compound 1 solutions prepared in the same manner as in Example 1: 0.4% solution, 0.8% solution (instillation volume: 20 μL)
# Test animals: C57BL/6JJcl mice (6- to 10-week old, sex: male, 11 to 12 mice per group)
# The preparation of a CNV model and evaluation were performed with reference to a literature (e.g., J. Leukoc. Biol. 2003; 74: 25-32, or Am. J. Pathol. 1998; 153: 1641-1646). More specifically, each of the mice was given tropicamide by ocular instillation to cause mydriasis, anesthetized by intraperitoneal administration of 100 mg/kg of Ketalar and 10 mg/kg of Selactar, and subjected to photocoagulation at 4 spots per eye. The photocoagulation was performed by krypton laser irradiation (75-μm spot size, 0.1 seconds duration, 200 mW) with a slit-lamp delivery system using a cover glass as a contact lens. Test groups were a saline instillation group (control), a 0.4% compound 1 solution instillation group, and a 0.8% compound 1 solution instillation group. […] More specifically, a spot with bleeding or tissue destruction was excluded, the CNV volume of each spot adopted was calculated by NIS-Elements AR Version 4.13, and then an average value (μm^3) per eye was calculated.
# Kimba (trVEGF029) mice = assay: Kimba (trVEGF029) mice, fluorescein fundus angiography and optical coherence tomography; format: in vivo; details: 0.8% solution, ocular instillation three times a day for 2 weeks
# Experimental: The effectiveness of the compound 1 in Kimba (trVEGF029) mice known as mice transgenic for VEGF gene, which develop retinal neovascularization, was examined in the following manner.
# Compound 1 solution prepared in the same manner as in Example 1: 0.8% solution (instillation volume: 20 μL)
# Test animals: Kimba mice (available from Lions Eye Institute Ltd., 6 mice per group)
# One-month-old Kimba mice born on the same day were given saline (control) or the 0.8% compound 1 solution by ocular instillation three times a day for 2 weeks, and were then subjected to fluorescein fundus angiography and optical coherence tomography under anesthesia for evaluation. More specifically, in fluorescein fundus angiography, each of the mice was first given tropicamide by ocular instillation to cause mydriasis and then anesthetized by intraperitoneal administration of 100 mg/kg of Ketalar and 10 mg/kg of Selactar, given 6 μL/g of a contrast agent for fluorescein fundus angiography by intraperitoneal injection, and subjected to fluorescein fundus angiography using Heidelberg Retina Angiograph (HRA, Heidelberg, Germany). […]
# [2] = test system: b-END3 (bEND.3) mouse brain microvascular endothelial cells; assay: Tight junction test: F-Actin immunostaining in b-END3 cells; format: cell-based; details: pretreatment 3 μM or 30 μM, 3 hours; VEGF 25 ng/mL or IL-6 10 ng/mL, 24 hours
# Experimental: According to a conventional method, b-END3 (bEND.3: ATCC CRL-2299™) cells, which are mouse brain microvascular endothelial cells, were subcultured in 3.5 cm dishes (9×10^5 cells/dish), and a test was started from day 6 after subculture. […]
# The cells after the test were subjected to immunostaining according to the following procedure to evaluate the expression of Claudin-5 or F-Actin. […] Then, a cover glass-sized cell sample was prepared by trimming with a cotton swab, enclosed with a Dako pen, blocked with 10% normal goat serum (10% normal goat serum ready-to-use (Invitrogen)) (30 min, ordinary temperature), and allowed to stand at 4° C. overnight. […]
structure (smiles),measurement,setting,value
"C[C@H]1CNCCCN1S(=O)(=O)c1cccc2cncc(F)c12 [compound 1, (S)-(−)-1-(4-fluoro-5-isoquinolinesulfonyl)-2-methyl-1,4-homopiperazine]","CNV volume (mean±standard error, average per eye)",[1]; 0.4% solution,56408±9007 μm^3
same,"CNV volume (mean±standard error, average per eye)",[1]; 0.8% solution,88387±33678 μm^3
same,edema (fluorescein fundus angiography / optical coherence tomography images),Kimba (trVEGF029) mice,suppression of edema is observed
same,average maximum retinal thickness (mean±standard error),"Kimba (trVEGF029) mice; optical coherence tomography, saline control 361.8±36.1",256.7±35.7 μm
same,F-Actin polymerization caused by VEGF stimulation or IL-6 stimulation,[2],suppression of F-Actin polymerization
